# Measurements reported in patent US7169786B2, “Isoxazoline derivatives as anti-depressants” (priority 2001, dated 2007).
# Read-outs that look alike come from different tables or passages of the source.
# Tests used:
# [1] = molecular target: T1, hα2B receptor (Homo sapiens, UniProt P18089); test: Radioligand binding experiment for hα2B receptor ([3H]-raulwolscine)
# T1 construct: expressed in transfected cells
# T1 sequence (P18089 1-450): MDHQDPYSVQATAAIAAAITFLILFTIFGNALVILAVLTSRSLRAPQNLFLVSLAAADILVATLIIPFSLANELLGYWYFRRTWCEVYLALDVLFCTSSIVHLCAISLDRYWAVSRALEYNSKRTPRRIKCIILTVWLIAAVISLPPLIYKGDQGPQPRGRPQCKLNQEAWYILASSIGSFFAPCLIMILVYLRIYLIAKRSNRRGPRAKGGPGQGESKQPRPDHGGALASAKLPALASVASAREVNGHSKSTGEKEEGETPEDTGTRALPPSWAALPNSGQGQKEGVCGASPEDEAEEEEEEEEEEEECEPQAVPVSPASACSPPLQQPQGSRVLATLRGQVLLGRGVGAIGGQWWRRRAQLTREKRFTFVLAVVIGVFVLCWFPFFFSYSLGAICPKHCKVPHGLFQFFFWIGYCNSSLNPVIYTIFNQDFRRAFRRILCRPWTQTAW
# Procedure: (§1) The interaction of the compounds of Formula (I) with hα2-receptors and h5-HT-transporters was assessed in in vitro radioligand binding experiments. In general, a low concentration of a radioligand with a high binding affinity for a particular receptor or transporter is incubated with a sample of a tissue preparation enriched in a particular receptor or transporter or with a preparation of cells expressing cloned human receptors in a buffered medium. During the incubation, the radioligand binds to the receptor or transporter. When equilibrium of binding is reached, the receptor bound radioactivity is separated from the non-bound radioactivity, and the receptor- or transporter-bound activity is counted. The interaction of the test compounds with the receptor is assessed in competition binding experiments. Various concentrations of the test compound are added to the incubation mixture containing the receptor- or transporter preparation and the radioligand. The test compound in proportion to its binding affinity and its concentration inhibits binding of the radioligand. The radioligand used for hα2A, hα2B and hα2C receptor binding was [^3H]-raulwolscine and for the h5-HT transporter was [^3H]paroxetine.
# (§2) CHO cells, stabile transfected with human adrenergic-α2A-, -α2B or α2C receptor cDNA, were cultured in Dulbecco's Modified Eagle's Medium (DMEM)/Nutrient mixture Ham's F12 (ratio 1:1)(Gibco, Gent-Belgium) supplemented with 10% heat inactivated fetal calf serum (Life Technologies, Merelbeke-Belgium) and antibiotics (100 IU/ml penicillin G, 100 μg/ml streptomycin sulphate, 110 μg/ml pyruvic acid and 100 μg/ml L-glutamine). One day before collection, cells were induced with 5 mM sodiumbutyrate. Upon 80–90% of confluence, cells were scraped in phosphate buffered saline without Ca^2+ and Mg^2+ and collected by centrifugation at 1500×g for 10 min. The cells were homogenised in Tris-HCl 50 mM using an Ultraturrax homogenizer and centrifuged for 10 min at 23,500×g. The pellet was washed once by resuspension and rehomogenization and the final pellet was resuspended in Tris-HCl, divided in 1 ml aliquots and stored at −70° C.
# (§3) Membranes were thawed and re-homogenized in incubation buffer (glycylglycine 25 mM, pH 8.0). […] Filters were rinsed extensively with ice-cold rinsing buffer (Tris-HCl 50 mM pH 7.4). Filter-bound radioactivity was determined by scintillation counting in a Topcount (Packard, Meriden, Conn.) and results were expressed as counts per minute (cpm). Non-specific binding was determined in the presence of 1 μM oxymetazoline for hα2A- and hα2B receptors and 1 μM spiroxatrine for hα2C receptors.
# (§4) Data from assays in the presence of compound were calculated as a percentage of total binding measured in the absence of test compound. Inhibition curves, plotting percent of total binding versus the log value of the concentration of the test compound, were automatically generated, and sigmoidal inhibition curves were fitted using non-linear regression. The pIC50 values of test compounds were derived from individual curves.
# [2] = molecular target: T2, h5-HT transporter (Homo sapiens, UniProt P31645); test: Radioligand binding experiment for 5-HT transporter ([3H]paroxetine, human platelet membranes)
# T2 construct: Human platelet membranes (Oceanix Biosciences Corporation, Hanover, Md., USA) were thawed; tissue Oceanix Biosciences Corporation, Hanover, Md., USA; host or cells: human platelet membranes
# T2 sequence (P31645 whole entry): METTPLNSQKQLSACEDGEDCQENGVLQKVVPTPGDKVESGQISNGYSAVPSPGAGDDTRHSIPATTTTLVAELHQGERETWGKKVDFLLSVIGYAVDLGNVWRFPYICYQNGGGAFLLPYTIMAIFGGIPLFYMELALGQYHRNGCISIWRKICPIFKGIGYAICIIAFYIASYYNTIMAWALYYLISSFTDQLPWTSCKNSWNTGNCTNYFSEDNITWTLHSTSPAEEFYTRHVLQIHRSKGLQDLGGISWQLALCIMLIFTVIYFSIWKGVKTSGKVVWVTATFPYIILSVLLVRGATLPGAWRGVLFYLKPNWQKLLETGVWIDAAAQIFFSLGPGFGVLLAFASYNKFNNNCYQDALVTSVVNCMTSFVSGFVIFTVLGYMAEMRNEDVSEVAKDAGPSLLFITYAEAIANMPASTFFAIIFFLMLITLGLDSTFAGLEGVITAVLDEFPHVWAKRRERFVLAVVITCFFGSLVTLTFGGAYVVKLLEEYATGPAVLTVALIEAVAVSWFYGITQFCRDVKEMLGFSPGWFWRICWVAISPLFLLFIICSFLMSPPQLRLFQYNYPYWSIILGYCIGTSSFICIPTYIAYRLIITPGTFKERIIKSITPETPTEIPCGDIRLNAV
# Procedure: as §1
# Human platelet membranes (Oceanix Biosciences Corporation, Hanover, Md., USA) were thawed, diluted in buffer (Tris-HCl 50 mM, 120 mM NaCl and 5 mM KCl) and quickly (max 3 s) homogenised with an Ultraturrax homogenizer. […] Filters were rinsed extensively with ice-cold buffer and radioactivity on the filters was counted in a Topcount liquid scintillation counter (Packard, Meriden, Conn.). Data were expressed as cpm. Imipramine (at 1 μM final concentration) was used to determine the non-specific binding.
# as §4
# [3] = molecular target: T3, hα2C receptor (Homo sapiens, UniProt P18825); test: Radioligand binding experiment for hα2C receptor ([3H]-raulwolscine)
# T3 construct: expressed in transfected cells
# T3 sequence (P18825 1-462): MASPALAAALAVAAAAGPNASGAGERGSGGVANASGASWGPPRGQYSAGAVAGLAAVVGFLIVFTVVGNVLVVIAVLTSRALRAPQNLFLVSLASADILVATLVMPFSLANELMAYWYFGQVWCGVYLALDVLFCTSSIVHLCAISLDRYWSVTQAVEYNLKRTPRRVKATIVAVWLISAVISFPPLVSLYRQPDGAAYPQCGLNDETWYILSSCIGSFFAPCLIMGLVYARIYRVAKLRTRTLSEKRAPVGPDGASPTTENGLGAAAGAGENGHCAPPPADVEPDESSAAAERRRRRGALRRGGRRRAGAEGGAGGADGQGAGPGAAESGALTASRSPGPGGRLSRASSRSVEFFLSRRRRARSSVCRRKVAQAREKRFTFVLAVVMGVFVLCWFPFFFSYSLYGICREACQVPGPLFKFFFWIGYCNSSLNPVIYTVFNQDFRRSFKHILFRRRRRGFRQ
# Procedure: as §1, §2, §3, §4
# [4] = membranes of CHO cells expressing human α2B receptor, [3H]raulwolscine 1 nM, read-out: hα2B pIC50 (converted)
# [5] = human platelet membranes, [3H]paroxetine 0.5 nM, read-out: 5HTT pIC50 (converted)
# [6] = membranes of CHO cells expressing human α2C receptor, [3H]raulwolscine 1 nM, read-out: hα2C pIC50 (converted)
# [7] = read-out: hα2B pIC50 (converted)
# [8] = read-out: 5HTT pIC50 (converted)
# [9] = read-out: hα2C pIC50 (converted)
# [10] = hα2C pIC50, membranes of CHO cells expressing human α2C receptor, [3H]raulwolscine 1 nM
# [11] = membranes of CHO cells expressing human α2B receptor, [3H]raulwolscine 1 nM
# [12] = human platelet membranes, [3H]paroxetine 0.5 nM
# [13] = membranes of CHO cells expressing human α2C receptor, [3H]raulwolscine 1 nM
structure (smiles),measurement,setting,value
c1ccc2c(c1)NCC1C2=NOC1CN1CCN(Cc2ccc3ccccc3c2)CC1 (stereo not shown) [Compound 9],IC50,[1]; [4],4.68 nM
same,IC50,[2]; [5],1.58 nM
same,IC50,[3]; [6],107 nM
"COc1cc2c(cc1OC)C1=NOC(CN3CCN(C/C=C/c4ccccc4)CC3)C1CO2 (single isomer, unassigned) [Compound 1]",IC50,[1]; [7],3.24 nM
same,IC50,[2]; [8],5.13 nM
CC(=Cc1ccccc1)CN1CCN(CC2ON=C3c4ccc(OC(=O)C5CC5)cc4OCC32)CC1 (stereo not shown) [Compound 250],IC50,[1]; [4],6.76 nM
same,IC50,[2]; [5],81.3 nM
same,IC50,[3]; [9],3.31 nM
"COc1cc2c(cc1OC)C1=NOC(CN3CCN(C/C(C)=C/c4ccccc4)CC3)C1CO2 (single isomer, unassigned) [Compound 129]",IC50,[1]; [4],9.77 nM
same,IC50,[3]; [6],6.76 nM
"COc1cc2c(cc1OC)C1=NOC(CN3CCN(Cc4ccc5ccccc5c4)CC3)C1CO2 (single isomer, unassigned) [Compound 16]",IC50,[1]; [7],6.17 nM
same,IC50,[2]; [8],3.72 nM
same,IC50,[3]; [9],6.76 nM
COc1cc2c(cc1OC)C1=NOC(CN3CCN(Cc4cccc(C#N)c4)CC3)C1CO2 (stereo not shown) [Compound 97],IC50,[2]; [5],355 nM
same,IC50,[3]; [6],1000 nM
COc1ccc2c(c1)OCC1C2=NOC1CN1CCN(CC=Cc2ccccc2)CC1 (stereo not shown) [Compound 217],IC50,[1]; [4],6.17 nM
same,IC50,[2]; [5],53.7 nM
same,IC50,[3]; [9],14.1 nM
CC(=Cc1ccccc1)CN1CCN(CC2ON=C3c4ccc(OCCN(C)C)cc4OCC32)CC1 (stereo not shown) [Compound 242],IC50,[1]; [4],0.363 nM
same,IC50,[2]; [5],11.2 nM
CCNC(=O)Oc1ccc2c(c1)OCC1C2=NOC1CN1CCN(CC(C)=Cc2ccccc2)CC1 (stereo not shown) [Compound 238],IC50,"[1]; hα2B pIC50, membranes of CHO cells expressing human α2B receptor, [3H]raulwolscine 1 nM",2.4 nM
same,IC50,[2]; 5HTT pIC50,8.51 nM
same,IC50,[3]; [10],2.57 nM
"COc1cc2c(cc1OC)C1=NOC(CN3CCN(C/C=C/c4ccccc4)CC3)C1CO2 (single isomer, unassigned) [Compound 8]",IC50,[1]; [7],7.24 nM
same,IC50,[2]; [8],17.8 nM
CC(=Cc1ccccc1)CN1CCN(CC2ON=C3c4ccc(OC5CCCC5)cc4OCC32)CC1 (stereo not shown) [Compound 243],hα2B pIC50,[1]; [11],7.77
same,5HTT pIC50,[2]; [12],6.75
same,hα2C pIC50,[3]; [13],8.29
"COc1cc2c(cc1OC)C1=NOC(CN3CCN(CC(C)=Cc4ccccc4)CC3)C1CN2 (single isomer, unassigned) [Compound 253]",hα2B pIC50,[1]; [11],7.94
same,5HTT pIC50,[2]; [12],6.60
same,hα2C pIC50,[3]; [13],7.98
COc1cc2c(cc1OC)C1=NOC(CN3CCN(CC=Cc4cccc(F)c4)CC3)C1CN2 (stereo not shown) [Compound 351],hα2B pIC50,[1]; [11],8.16
same,5HTT pIC50,[2]; [12],8.06
same,hα2C pIC50,[3]; [13],8.19
COc1cc2c(cc1OC)C1=NOC(CN3CCN(Cc4ccc5ccccc5c4)CC3)C1CN2 (stereo not shown) [Compound 15],IC50,[1]; [4],14.5 nM
same,IC50,[2]; [8],17 nM
same,IC50,[3]; [6],11.5 nM
"CCNC(=O)Oc1cc2c(cc1OC)C1=NOC(CN3CCN(C/C(C)=C/c4ccccc4)CC3)C1CO2 (single isomer, unassigned) [Compound 340]",IC50,[2]; 5HTT pIC50,22.9 nM
same,IC50,[3]; [10],3.8 nM
"COc1cc2c(cc1OC)C1=NOC(CN3CCN(C/C=C(\C)c4ccccc4)CC3)C1CO2 (single isomer, unassigned) [Compound 320]",IC50,[1]; [7],20 nM
same,IC50,[2]; [8],32.4 nM
same,IC50,[3]; [9],6.76 nM
COc1cc2c(cc1OC)C1=NOC(CN3CCN(Cc4ccc5ccccc5c4)CC3)C1CN2 (stereo not shown) [Compound 272],IC50,[1]; [4],26.9 nM
same,IC50,[2]; [8],4.79 nM
same,IC50,[3]; [6],135 nM
COc1cc2c(cc1OC)C1=NOC(CN3CCN(Cc4ccccc4C(F)(F)F)CC3)C1CO2 (stereo not shown) [Compound 79],IC50,[2]; [5],1000 nM
same,IC50,[3]; [6],1000 nM
COc1cc2c(cc1OC)C1=NOC(CN3CCN(Cc4ccc([N+](=O)[O-])cc4)CC3)C1CO2 (stereo not shown) [Compound 81],IC50,[2]; [5],145 nM
same,IC50,[3]; [6],1000 nM
C=CC(=O)Oc1ccc2c(c1)OCC1C2=NOC1CN1CCN(CC(C)=Cc2ccccc2)CC1 (stereo not shown) [Compound 251],hα2B pIC50,[1]; [11],8.31
same,5HTT pIC50,[2]; [12],6.89
same,hα2C pIC50,[3]; [13],8.26
CCOC(=O)N1CC2C(=NOC2CN2CCN(CC=Cc3ccccc3)CC2)c2ccccc21 (stereo not shown) [Compound 226],hα2B pIC50,[1]; [11],7.09
same,5HTT pIC50,[2]; [12],8.08
same,hα2C pIC50,[3]; [13],6.96
O=C(N1CC2C(=NOC2CN2CCN(CC=Cc3ccccc3)CC2)c2ccccc21)C(F)(F)F (stereo not shown) [Compound 224],hα2B pIC50,[1]; [11],7.66
same,5HTT pIC50,[2]; [12],7.31
same,hα2C pIC50,[3]; [13],7.13
CC(=Cc1ccccc1)CN1CCN(CC2ON=C3c4ccccc4NCC32)CC1 (stereo not shown) [Compound 234],hα2B pIC50,[1]; [11],8.88
same,5HTT pIC50,[2]; [12],7.71
same,hα2C pIC50,[3]; [13],8.41
CC(=Cc1ccccc1)CN1CCN(CC2ON=C3c4ccc(OC(=O)C(C)(C)C)cc4OCC32)CC1 (stereo not shown) [Compound 329],IC50,[1]; [4],27.5 nM
same,IC50,[2]; [8],33.1 nM
same,IC50,[3]; [9],18.2 nM
COCCOc1ccc2c(c1)OCC1C2=NOC1CN1CCN(CC(C)=Cc2ccccc2)CC1 (stereo not shown) [Compound 239],IC50,[1]; [4],2.4 nM
same,IC50,[2]; [5],14.1 nM
same,IC50,[3]; [6],0.288 nM
CC(=Cc1ccccc1)CN1CCN(CC2ON=C3c4ccc(O)cc4OCC32)CC1 (stereo not shown) [Compound 237],IC50,[1]; [4],1.26 nM
same,IC50,[2]; [5],11.5 nM
same,IC50,[3]; [6],1.17 nM
COc1cc2c(cc1OC)C1=NOC(CN3CCN(CC=C(C)c4ccccc4)CC3)C1CN2 (stereo not shown) [Compound 379],IC50,[1]; [4],19.5 nM
same,IC50,[2]; [5],34.7 nM
same,IC50,[3]; [6],40.7 nM
